Results as given in patent US20130136693A1, “Crystal Forms of 2--Adenosine” (King Pharmaceuticals Research and Development, Inc, priority 2008, published 2013).

Experiments:
Assay type in all cases: physicochemical
[1] = competitive slurry experiments (XRPD of remaining solids); conditions: 25 °C, 24 h
Experimental: Two different types of slurry experiments may be performed, i.e., competitive and noncompetitive slurry experiments. Competitive slurry experiments are performed by mixing excess amounts of non-solvated polymorphic forms together in different solvents and agitating the mixture isothermally. These types of slurry experiments may be used to determine which form is more thermodynamically stable (under the conditions tested).
When competitive slurry experiments are performed, the nucleation step is generally bypassed. Because the two (or more) forms placed into contact with the solvent have different solubilities, particles of the form with the lower solubility grow at the expense of the more soluble form. This occurs since the more soluble form is saturated, and the less soluble form is supersaturated.
(§1) In general, slurry experiments are performed by agitating approximately 0.01 g to 2.5 g of material in 0.5 mL to 50 mL of slurry solvent. Uniform agitation and temperature control are accomplished using, e.g., Reacti-Therm heating modules and small Teflon coated stir bars. The duration of the slurry experiments is often around 24 h (although in some cases the experiments may be continued for several weeks). At the end of the slurry experiment, remaining undissolved solids are collected by vacuum filtration. To avoid inducing any type of physical change, the solids are not subjected to additional drying before the XRPD analysis.
In addition to the pure solvent noncompetitive slurry experiments performed, three competitive slurry experiments in Table 8 are performed at room temperature. These slurry experiments are composed of an approximately 50/50 mixture of Form I and Form II solids. Three different solvents are used to perform the competitive slurry experiments: DCM, i-PrOAc and EtOAc.

[2] = moisture sorption analysis; conditions: relative humidity of about 94%, 14 days, 25° C.
[3] = non-competitive slurry experiments (XRPD of remaining solids); conditions: for Final Form (XRPD): 4 h
Experimental: In an alternative aspect of the present invention, solid forms of binodenoson may be suspended in a suitable solvent at a temperature of at least 10° C., preferably at a temperature ranging from about 25° C. to about 60° C. Under suitable conditions, a suspension/slurry results in which particles of solid are dispersed, and remain incompletely dissolved in the solvent. Preferably, the solids are maintained in a state of suspension by agitation, e.g., by shaking or stirring. The suspension/slurry is then kept at a temperature of 10° C. or higher, e.g., at a temperature ranging from about 25° C. to about 60° C., for a time sufficient to effect transformation of the starting solids into product crystals. The product crystals may then be isolated and dried using conventional methods in the art. In the presence of water, all crystal forms of binodenoson will convert to Form II hydrate.
Noncompetitive slurry experiments are useful for identifying solvent mediated conditions useful for converting one crystalline form to another. In these experiments, excess material of a single crystal form is mixed with a solvent under isothermal conditions. These experiments rely on differences in solubility of the different polymorphic forms. […] Essentially, when a polymorph is suspended in a suitable solvent, a saturated solution phase (eventually) results. The solution phase is saturated with respect to the polymorphic form dissolved.
The results of these experiments often depend on nucleation kinetics and the presence of impurities that may inhibit nuclei growth of other stable crystalline modifications.
as §1

[4] = solubility studies in EtOH
Experimental: In the current set of results, Form I crystals readily transforms into Form II crystals in EtOAc at 60° C. for 4 h (experiment No. 7). […] Thus, Form I appears to convert to Form II, but really converts to Form II hydrate. […] Thus, in the presence of residual water, Form II is obtained in the isostructural hydrate form, whereas in a completely anhydrous system, Form I results.

[5] = drying of crystals, crystal form checked by XRPD
Experimental: Furthermore, TGA and ^1H-NMR indicate that Form I crystals may also contain approximately 4 wt-% of ethanol (FIG. 1A).
In accordance with the TG data, after a few minutes at 125° C. in the KF oven, most of the weight loss from ethanol and water is complete affording Form I crystals in an anhydrous form (FIG. 1B). […] A comparison of the calorimetric behavior of the anhydrous Form I crystals and the Form I crystals containing residual solvents (“undried”) is summarized in Table 1:
Form II crystal form may be obtained in a hydrated form or in an anhydrous form. For example, slow crystallization from lower alcohols such as MeOH and EtOH in the presence of residual water provides hydrated Form II crystals.

Nc1nc(NN=CC2CCCCC2)nc2c1ncn2[C@@H]1O[C@H](CO)C(O)C1O (stereo partly drawn) [Form I & II, 2-{2-[(cyclohexyl)methylene]-hydrazino}adenosine]
Final Form (XRPD) ([1]; experiment No. 11: DCM): II^b
Final Form (XRPD) ([1]; experiment No. 12: i-PrOAc): II^b
Final Form (XRPD) ([1]; experiment No. 13: EtOAc): II^b

Nc1nc(NN=CC2CCCCC2)nc2c1ncn2[C@@H]1O[C@H](CO)[C@@H](O)[C@H]1O [Form I, 2-{2-[(cyclohexyl)methylene]-hydrazino}adenosine]
hygroscopicity [2]: non-hygroscopic
Final Form (XRPD) ([3]; experiment No. 1: EtOAc, 40 °C): amorphous
Final Form (XRPD) ([3]; experiment No. 2: EtOH, 40 °C): all dissolved
Final Form (XRPD) ([3]; experiment No. 4: i-Pr2O, 40 °C): amorphous
Final Form (XRPD) ([3]; experiment No. 5: MeOH, 40 °C): all dissolved
Final Form (XRPD) ([3]; experiment No. 7: EtOAc, 60 °C): II^b
thermodynamic stability relative to Form II ([4]; when water is not present, from solubilities): thermodynamically more stable than Form II
change of crystalline form upon drying (XRPD) ([5]; drying under nitrogen, 125° C. in the KF oven): does not change significantly

Nc1nc(NN=CC2CCCCC2)nc2c1ncn2[C@@H]1O[C@H](CO)[C@@H](O)[C@H]1O [Form II hydrate, 2-{2-[(cyclohexyl)methylene]-hydrazino}adenosine]
solubility of the isostructural hydrate ([4]; presence of residual water, deduced): lower solubility than that of Form I
change of XRPD pattern upon drying ([5]; drying the hydrated crystals): does not change the XRPD pattern

Nc1nc(NN=CC2CCCCC2)nc2c1ncn2[C@@H]1O[C@H](CO)[C@@H](O)[C@H]1O [Form II, 2-{2-[(cyclohexyl)methylene]-hydrazino}adenosine]
solubility compared with Form I ([4]; anhydrous Forms I and II compared in EtOH): much higher solubility
behaviour during solubility studies ([4]; dry EtOH): completely dissolve and recrystallize as Form I

Nc1nc(NN=CC2CCCCC2)nc2c1ncn2[C@@H]1O[C@H](CO)[C@@H](O)[C@H]1O [Form V, 2-{2-[(cyclohexyl)methylene]-hydrazino}adenosine]
stability relative to Form I ([3]; at 40° C., from experiment No. 6 (DCM slurry)): more stable than Form I

Nc1nc(NN=CC2CCCCC2)nc2c1ncn2[C@@H]1O[C@H](CO)[C@@H](O)[C@H]1O [anhydrous Form I, 2-{2-[(cyclohexyl)methylene]-hydrazino}adenosine]
crystal form after moisture sorption analysis [2]: remains the same
weight gain in moisture sorption analysis [2]: approximately 1.3%
